Legend:
pigweed = experiment: Test B pre/postemergence pigweed; assay type: in vivo, Amaranthus retroflexus
How it was run: (§1)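 Response is a visual 0-to-10 score relative to untreated plants, where 0 means no effect and 10 means complete control, taken twelve to sixteen days after application. Treatments went onto soil at planting and onto foliage of 1- to 4-leaf plants, using a surfactant-containing non-phytotoxic solvent.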

corn = experiment: Test B pre/postemergence corn; assay type: in vivo, Zea mays; details: for Corn plant response rating: Postemergence; for Plant response rating, Corn: Preemergence
How it was run: as §1

blackgrass = experiment: Test B pre/postemergence blackgrass; assay type: in vivo, Alopecurus myosuroides
How it was run: as §1

crabgrass = experiment: Test B pre/postemergence crabgrass; assay type: in vivo, Digitaria sanguinalis
How it was run: as §1

cocklebur = experiment: Test B pre/postemergence cocklebur; assay type: in vivo, Xanthium strumarium
How it was run: as §1

giant foxtail = experiment: Test B pre/postemergence giant foxtail; assay type: in vivo, Setaria faberii
How it was run: as §1

morningglory = experiment: Test B pre/postemergence morningglory; assay type: in vivo, Ipomoea hederacea; details: for Morningglory plant response rating: Postemergence; for Plant response rating, Morningglory: Preemergence
How it was run: as §1

rape = experiment: Test B pre/postemergence rape; assay type: in vivo, Brassica napus
How it was run: as §1

wild oat = experiment: Test B pre/postemergence wild oat; assay type: in vivo, Avena fatua
How it was run: as §1

soybean = experiment: Test B pre/postemergence soybean; assay type: in vivo, Glycine max
How it was run: as §1

purple nutsedge = experiment: Test B pre/postemergence purple nutsedge; assay type: in vivo, Cyperus rotundus
How it was run: as §1

surinam grass = experiment: Test B pre/postemergence surinam grass; assay type: in vivo, Brachiaria decumbens
How it was run: as §1

velvetleaf = experiment: Test B pre/postemergence velvetleaf; assay type: in vivo, Abutilon theophrasti
How it was run: as §1

wheat = experiment: Test B pre/postemergence wheat; assay type: in vivo, Triticum aestivum
How it was run: as §1

bedstraw = experiment: Test B pre/postemergence bedstraw; assay type: in vivo, Galium aparine
How it was run: as §1

[1] = Postemergence, Rate 62 g/ha, scale 0 to 10, 0 is no effect, 10 is complete control
[2] = Postemergence, Rate 250 g/ha, scale 0 to 10, 0 no effect, 10 complete control
[3] = Preemergence, Rate 62 g/ha, scale 0 to 10, 0 is no effect, 10 is complete control
[4] = Preemergence, Rate 125 g/ha, scale 0 to 10 (0 no effect, 10 complete control)
[5] = Preemergence, Rate 250 g/ha, scale of 0 to 10 where 0 is no effect and 10 is complete control
[6] = Preemergence, Rate 500 g/ha, scale 0 (no effect) to 10 (complete control)
[7] = Rate 125 g/ha, Postemergence, scale 0 to 10, 0 no effect, 10 complete control
[8] = Rate 500 g/ha, Postemergence, scale 0 to 10, 0 no effect, 10 complete control
[9] = Rate 62 g/ha, scale 0 to 10, 0 is no effect, 10 is complete control
[10] = Rate 250 g/ha, scale 0 to 10, 0 no effect, 10 complete control
[11] = Rate 125 g/ha, scale 0 to 10 (0 no effect, 10 complete control)
[12] = Rate 250 g/ha, scale of 0 to 10 where 0 is no effect and 10 is complete control
[13] = Rate 125 g/ha, scale 0 to 10, 0 no effect, 10 complete control
[14] = Rate 500 g/ha, scale 0 to 10, 0 no effect, 10 complete control

Cc1cccc(Cl)c1-n1c(=O)on(C(=O)N(c2ccc(Cl)cc2)C(C)C)c1=O [Compound 54]
Redroot pigweed plant response rating (pigweed; [1]): 0
Redroot pigweed plant response rating (pigweed; [2]): 2
Plant response rating, Redroot pigweed (pigweed; [3]): 0
Plant response rating, Redroot pigweed (pigweed; [4]): 0
Plant response rating, Redroot pigweed (pigweed; [5]): 0
Redroot pigweed plant response rating (pigweed; [6]): 0
Redroot pigweed plant response rating (pigweed; [7]): 0
Redroot pigweed plant response rating (pigweed; [8]): 4
Corn plant response rating (corn; [9]): 0
Corn plant response rating (corn; [10]): 0
Plant response rating, Corn (corn; [9]): 0
Plant response rating, Corn (corn; [11]): 0
Plant response rating, Corn (corn; [12]): 0
Corn plant response rating (corn; [13]): 0
Corn plant response rating (corn; [14]): 0
Blackgrass plant response rating (blackgrass; [1]): 0
Blackgrass plant response rating (blackgrass; [2]): 0
Plant response rating, Blackgrass (blackgrass; [3]): 0
Plant response rating, Blackgrass (blackgrass; [4]): 0
Plant response rating, Blackgrass (blackgrass; [5]): 0
Blackgrass plant response rating (blackgrass; [6]): 2
Blackgrass plant response rating (blackgrass; [7]): 0
Blackgrass plant response rating (blackgrass; [8]): 2
Crabgrass plant response rating (crabgrass; [1]): 0
Crabgrass plant response rating (crabgrass; [2]): 2
Plant response rating, Crabgrass (crabgrass; [3]): 2
Plant response rating, Crabgrass (crabgrass; [4]): 2
Plant response rating, Crabgrass (crabgrass; [5]): 3
Crabgrass plant response rating (crabgrass; [6]): 8
Crabgrass plant response rating (crabgrass; [7]): 0
Crabgrass plant response rating (crabgrass; [8]): 5
Cocklebur plant response rating (cocklebur; [1]): 0
Cocklebur plant response rating (cocklebur; [2]): 0
Plant response rating, Cocklebur (cocklebur; [3]): 0
Plant response rating, Cocklebur (cocklebur; [4]): 0
Plant response rating, Cocklebur (cocklebur; [5]): 0
Cocklebur plant response rating (cocklebur; [6]): — 0 0 0 0
Cocklebur plant response rating (cocklebur; [7]): 0
Cocklebur plant response rating (cocklebur; [8]): 2
Giant foxtail plant response rating (giant foxtail; [1]): 3
Giant foxtail plant response rating (giant foxtail; [2]): 3
Plant response rating, Giant foxtail (giant foxtail; [3]): 2
Plant response rating, Giant foxtail (giant foxtail; [4]): 3
Plant response rating, Giant foxtail (giant foxtail; [5]): 3
Giant foxtail plant response rating (giant foxtail; [6]): 7
Giant foxtail plant response rating (giant foxtail; [7]): 3
Giant foxtail plant response rating (giant foxtail; [8]): 5
Morningglory plant response rating (morningglory; [9]): 0
Morningglory plant response rating (morningglory; [10]): 2
Plant response rating, Morningglory (morningglory; [9]): 0
Plant response rating, Morningglory (morningglory; [11]): 0
Plant response rating, Morningglory (morningglory; [12]): 0
Morningglory plant response rating (morningglory; [13]): 0
Morningglory plant response rating (morningglory; [14]): 2
Rape plant response rating (rape; [1]): 0
Rape plant response rating (rape; [2]): 0
Plant response rating, Rape (rape; [3]): 0
Plant response rating, Rape (rape; [4]): 0
Plant response rating, Rape (rape; [5]): 0
Rape plant response rating (rape; [6]): 0
Rape plant response rating (rape; [7]): 0
Rape plant response rating (rape; [8]): 0
Wild oats plant response rating (wild oat; [1]): 0
Wild oats plant response rating (wild oat; [2]): 0
Plant response rating, Wild oats (wild oat; [4]): 0
Plant response rating, Wild oats (wild oat; [5]): 0
Wild oats plant response rating (wild oat; [6]): 0
Wild oats plant response rating (wild oat; [7]): 0
Wild oats plant response rating (wild oat; [8]): 0
Soybean plant response rating (soybean; [1]): 0
Soybean plant response rating (soybean; [2]): 0
Plant response rating, Soybean (soybean; [3]): 0
Plant response rating, Soybean (soybean; [4]): 0
Plant response rating, Soybean (soybean; [5]): 0
Soybean plant response rating (soybean; [6]): 0
Soybean plant response rating (soybean; [7]): 0
Soybean plant response rating (soybean; [8]): 0
Nutsedge plant response rating (purple nutsedge; [1]): 0
Nutsedge plant response rating (purple nutsedge; [2]): 0
Plant response rating, Nutsedge (purple nutsedge; [3]): 0
Plant response rating, Nutsedge (purple nutsedge; [4]): 0
Plant response rating, Nutsedge (purple nutsedge; [5]): 0
Nutsedge plant response rating (purple nutsedge; [6]): 0
Nutsedge plant response rating (purple nutsedge; [7]): 0
Nutsedge plant response rating (purple nutsedge; [8]): 0
B. signalgrass plant response rating (surinam grass; [1]): 0
B. signalgrass plant response rating (surinam grass; [2]): 0
Plant response rating, B. signalgrass (surinam grass; [3]): 0
Plant response rating, B. signalgrass (surinam grass; [4]): 0
Plant response rating, B. signalgrass (surinam grass; [5]): 0
B. signalgrass plant response rating (surinam grass; [6]): 2
B. signalgrass plant response rating (surinam grass; [7]): 0
B. signalgrass plant response rating (surinam grass; Rate 500 g/ha, Postemergence, scale of 0 to 10 where 0 is no effect and 10 is complete control): 0
Velvetleaf plant response rating (velvetleaf; [1]): 0
Velvetleaf plant response rating (velvetleaf; [2]): 0
Plant response rating, Velvetleaf (velvetleaf; [3]): 0
Plant response rating, Velvetleaf (velvetleaf; [4]): 0
Plant response rating, Velvetleaf (velvetleaf; [5]): 0
Velvetleaf plant response rating (velvetleaf; [6]): 0
Velvetleaf plant response rating (velvetleaf; [7]): 0
Velvetleaf plant response rating (velvetleaf; [8]): 0
Wheat plant response rating (wheat; [1]): 0
Wheat plant response rating (wheat; [2]): 0
Plant response rating, Wheat (wheat; [3]): 0
Plant response rating, Wheat (wheat; [4]): 0
Plant response rating, Wheat (wheat; [5]): 0
Wheat plant response rating (wheat; [6]): 0
Wheat plant response rating (wheat; [7]): 0
Wheat plant response rating (wheat; [8]): 0
Bedstraw plant response rating (bedstraw; [1]): 0
Bedstraw plant response rating (bedstraw; [2]): 4
Plant response rating, Bedstraw (bedstraw; [3]): 0
Plant response rating, Bedstraw (bedstraw; [4]): 0
Plant response rating, Bedstraw (bedstraw; [5]): 0
Bedstraw plant response rating (bedstraw; [6]): — — 0 0 0
Bedstraw plant response rating (bedstraw; [7]): 0
Bedstraw plant response rating (bedstraw; [8]): 7
